Experimental data from ChEMBL document CHEMBL4680118, “Cerpegin-derived furo[3,4-c]pyridine-3,4(1H,5H)-diones enhance cellular response to interferons by de novo pyrimidine biosynthesis inhibition” (Eur J Med Chem, 2020).
Calls of active or inactive are those of the source. The calls are words filed in the database; no cut-off is given here.

Target: T1, Dihydroorotate dehydrogenase (quinone), mitochondrial (Homo sapiens, UniProt Q02127)
Test: Inhibition of DHODH in human HEK-293 cells transfected with ISRE-luciferase reporter gene assessed as increase in IFN-alpha mediated cellular response after 24 hrs by luciferase reporter gene assay
Details: read-out: EC50

T1 sequence (Q02127 whole entry): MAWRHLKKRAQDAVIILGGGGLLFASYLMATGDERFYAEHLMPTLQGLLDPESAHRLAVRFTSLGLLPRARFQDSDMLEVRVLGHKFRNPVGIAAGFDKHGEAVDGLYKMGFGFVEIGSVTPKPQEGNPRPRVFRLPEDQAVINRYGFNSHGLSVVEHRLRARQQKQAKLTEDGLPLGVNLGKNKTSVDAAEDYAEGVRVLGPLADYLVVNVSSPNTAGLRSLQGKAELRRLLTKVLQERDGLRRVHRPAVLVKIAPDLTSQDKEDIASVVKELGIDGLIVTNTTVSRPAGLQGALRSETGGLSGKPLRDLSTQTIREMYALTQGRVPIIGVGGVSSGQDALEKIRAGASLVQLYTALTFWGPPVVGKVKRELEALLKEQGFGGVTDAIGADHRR

EC50 [µM] | Structure (SMILES)
27 | CC1(c2ccccc2)OC(=O)c2c1ccn(C1CC1)c2=O (stereo not given)

Same assay, conditions: read-out: pEC50 (converted)

Structure (SMILES) | EC50 [µM]
CC1(C)OC(=O)c2c1ccn(C1CC1)c2=O | > 158
CCC1(C)OC(=O)c2c1ccn(C1CC1)c2=O (stereo not given) | > 158
CC1=C(C(=O)NC2CC2)C(=O)OC12CCCCC2 | > 158
CCC1(CC)OC(=O)c2c1ccn(C1CC1)c2=O | > 158
O=C1OC2(CCCCC2)c2ccnc(O)c21 | > 158
CC1(C)OC(=O)c2c1ccnc2O | > 158

Now from value to molecule:

EC50 [µM] | Structure (SMILES)
> 158 | O=C1OC2(CCCCC2)c2ccn(CC3CC3)c(=O)c21
> 158 | Cn1ccc2c(c1=O)C(=O)OC21CCCCC1
> 158 | O=C1OC2(CCCCC2)c2ccn(C3CCCCC3)c(=O)c21
> 158 | O=C1OC2(CCCCC2)c2ccn(C3CCCC3)c(=O)c21
> 158 | O=C1OC2(CCCCC2)c2ccn(C3CCC3)c(=O)c21
> 158 | CC(C)n1ccc2c(c1=O)C(=O)OC21CCCCC1
52.5 | O=C1OC2(CCCC2)c2ccn(C3CC3)c(=O)c21

Target: T1, Dihydroorotate dehydrogenase (quinone), mitochondrial
Test: Inhibition of DHODH in human HEK-293 cells transfected with ISRE-luciferase reporter gene assessed as increase in IFN-alpha mediated cellular response at 6 to 178 uM after 24 hrs by luciferase reporter gene assay
Format: cell-based
Details: HEK293, dose 6-178 µM

Activity | Structure (SMILES)
Active | CC1(c2ccccc2)OC(=O)c2c1ccn(C1CC1)c2=O (stereo not given)
